Data taken from patent US20210260022A1, “SYNERGY FOR INCREASING ENERGY EXPENDITURE AND INSULIN SENSITIVITY” (The Board of Supervisors of Louisiana State University and …, priority 2018, published 2021).
“Also recorded” adds a separate entry of the source. Read-outs that look alike come from different tables or passages of the source.

Tests used:
human adipocytes = experiment: Oxygen consumption rate in human adipocytes, Seahorse XF24; assay type: cell-based; conditions: treated for 7d
Procedure: Referring to FIG. 3, oxygen consumption rate in human adipocytes after Naringenin treatment. Cells were treated for 7d and OCR was measured using a Seahorse XF24. Rosiglitizone and GW7647 (activators of PPARγ and PPARα) were included as positive controls.

[1] = Eight-week case study of naringenin 150 mg three times daily in a subject with diabetes; assay type: in vivo, human
Procedure: A subject was recruited. […] The subject met the inclusion criteria of fasting blood glucose between 126 and 200 mg/dL. They had been prescribed metformin but had discontinued the medication due to gastrointestinal intolerance. Exclusion criteria consisted of known allergy to citrus fruit. The study was approved by the Pennington Biomedical Research Center (PBRC) Institutional Review Board. The participant provided written informed consent. Procedures were in accordance with PBRC's ethical standards. We conducted an eight-week case study. The subject completed three visits to the clinic. Visits were performed in the morning after an overnight fast for at least eight hours where only water was permitted. At the baseline visit, upon arrival, weight and vital signs (blood pressure and heart rate) were measured. […] Blood was collected for a chemistry panel (glucose, insulin, creatinine, potassium, uric acid, albumin, calcium, magnesium, creatine phosphokinase, alanine aminotransferase, alkaline phosphatase, iron, total cholesterol high density lipoprotein cholesterol [HDL-C], low density lipoprotein cholesterol [LDL-C], and triglycerides) and a complete blood count (CBC). Resting metabolic rate (RMR) was measured over five hours at baseline and at the end of eight weeks using the ventilated hood to collect expirated gases. The test required the subject to lie quietly in bed after ingesting a capsule containing 150 mg naringenin. To evaluate the subject's metabolic rate, oxygen consumed and the carbon dioxide given off were measured during the last thirty minutes of each hour. Following the baseline testing, the subject was given 100 capsules each containing 150 mg naringenin with instructions to take one orally three times daily. At weeks two and six, the subject received a phone call from the study coordinator and was asked about their progress and compliance. Changes in medications and adverse events were also evaluated. They were encouraged to comply with the study protocol. At week four, the subject returned to the clinic and their weight, blood pressure, and heart rate were measured. Any remaining capsules were collected and compliance was assessed. Naringenin (100 capsules) for the next four weeks was dispensed. Week eight marked the subject's last visit and involved repeating the baseline testing. At this visit, the subject returned any remaining capsules, and compliance was assessed. Whole sweet oranges (Citrus Sinensis) were subjected to an aqueous and ethanolic extraction process, dried, milled, and provided in a powder form by Green Chem/Gencor Lifestage Solutions (Irvine, Calif.). The quantification of naringenin in the extract, and the safety and pharmacokinetics of the extract in humans are previously described.^15 The extract contained 28% naringenin. Therefore each capsule prepared by the PBRC pharmacist contained 536 mg of the extract.

[2] = 150 mg three times a day for eight weeks (Murugesan et al., 2020); cited from earlier work
[3] = cited from earlier work
ovariectomized mice = conditions: cited from earlier work
PPARγ = target: T1, PPARγ (Homo sapiens, UniProt P37231); conditions: reporter gene assays; cited from earlier work
T1 sequence (P37231 1-505): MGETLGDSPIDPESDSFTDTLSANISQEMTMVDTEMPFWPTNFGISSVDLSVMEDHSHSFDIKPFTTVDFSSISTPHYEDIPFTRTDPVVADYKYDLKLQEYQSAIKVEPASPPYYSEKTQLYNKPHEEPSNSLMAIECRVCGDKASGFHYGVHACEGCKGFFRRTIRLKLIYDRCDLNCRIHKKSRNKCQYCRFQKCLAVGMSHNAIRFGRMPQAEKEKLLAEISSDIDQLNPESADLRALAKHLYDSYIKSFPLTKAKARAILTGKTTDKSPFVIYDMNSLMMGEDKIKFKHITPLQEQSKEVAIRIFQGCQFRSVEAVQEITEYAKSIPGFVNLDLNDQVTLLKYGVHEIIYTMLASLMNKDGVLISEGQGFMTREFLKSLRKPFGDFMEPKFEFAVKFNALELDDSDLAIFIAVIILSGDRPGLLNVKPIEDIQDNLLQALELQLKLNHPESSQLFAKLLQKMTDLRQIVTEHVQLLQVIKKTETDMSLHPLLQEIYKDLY

PPARα = target: T2, PPARα (Homo sapiens, UniProt Q07869); conditions: reporter gene assays; cited from earlier work
T2 sequence (Q07869 1-468): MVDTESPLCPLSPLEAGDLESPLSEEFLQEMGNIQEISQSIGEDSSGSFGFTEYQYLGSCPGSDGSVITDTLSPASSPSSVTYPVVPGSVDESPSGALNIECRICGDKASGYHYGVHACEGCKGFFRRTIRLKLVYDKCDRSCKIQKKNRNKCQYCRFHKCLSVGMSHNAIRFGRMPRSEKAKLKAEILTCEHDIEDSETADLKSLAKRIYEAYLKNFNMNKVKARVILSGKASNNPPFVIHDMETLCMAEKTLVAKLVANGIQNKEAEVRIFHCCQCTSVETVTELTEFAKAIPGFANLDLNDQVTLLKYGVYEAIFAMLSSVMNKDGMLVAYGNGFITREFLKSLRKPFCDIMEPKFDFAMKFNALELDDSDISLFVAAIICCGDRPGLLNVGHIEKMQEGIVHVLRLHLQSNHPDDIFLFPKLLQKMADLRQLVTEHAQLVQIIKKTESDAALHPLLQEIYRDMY

cytochrome P450 enzymes = conditions: in vivo studies in humans; cited from earlier work
[4] = cell culture and animal studies; cited from earlier work

With `O=C1C[C@@H](c2ccc(O)cc2)Oc2cc(O)cc(O)c21` [naringenin] the “oxygen consumption rate: basal and maximal energy expenditure” value (human adipocytes) was “significantly increases basal and maximal energy expenditure”, the “oxygen consumption rate: basal and maximal energy expenditure” value (human adipocytes; listed as Naringenin) was “increase in oxygen consumption” and the “loss of body weight” value ([1]; 150 mg three times a day, in 8 weeks) was 2.3%. The “reduction in HOMA-IR” value ([1]; absolute, eight weeks vs baseline) was 0.6, the “maximal respiratory quotient increase above baseline” value ([1]; at one hour) was 1.2% and the “RMR peak above baseline” value ([1]; at one hour, after eight weeks) was 3.5%. The “triglycerides after eight weeks” value ([1]; baseline 53 mg/dL) was 70 mg/day, the “HOMA-IR at the end of the study” value ([1]; baseline 3.4) was 2.8 and the “Low density lipoprotein cholesterol decrease” value ([1]; calculated with the Friedewald equation) was 10.3 mg/dL. The adverse events ([1]; eight weeks) was “No adverse events were reported”, the blood safety markers ([1]; eight weeks) was “within their reference ranges; also recorded: no clinically significant changes” and the “change in respiratory quotient” value ([1]; eight weeks) was “no change; also recorded: did not change”. For the same compound, the HOMA-IR reduction ([1]; eight weeks vs baseline) was 17.6%, the change in glucose ([1]; eight weeks vs baseline) was “not clinically significant” and the triglycerides increase ([1]; eight weeks vs baseline 53 mg/dL) was 32%. For the same compound, the “loss of body weight at the 6 month plateau” value ([1]; extrapolated from 8 weeks) was 4.6%, the Body weight decrease ([1]; over eight weeks, vs baseline) was 2.3 kg and the body weight reduction [2] was 2.5%. The “serum concentrations of naringenin” value ([3]; after orange juice and fruit) was less than 1 μm, the presence in serum ([3]; lowest dose of 150 mg) was “present in serum at concentrations sufficient to elicit a physiologic response” and the physiologically attainable concentration ([3]; pharmacokinetic studies in humans) was 10 μM. The adverse events ([3]; single ascending dose trial of whole orange extract) was “no adverse events were observed at any dose”, the “weight gain, glucose metabolism and muscle function” value (ovariectomized mice; ovariectomized mice fed a high fat diet) was “reversed the weight gain and improved glucose metabolism and muscle function” and the “fasting glucose, insulin (and cholesterol) levels” value (ovariectomized mice; ovariectomized mice) was “improved fasting glucose, insulin and cholesterol levels”. The “weight gain caused by ovariectomy” value (ovariectomized mice; ovariectomized mice) was “prevented the weight gain”, the “activation of PPARγ” value (PPARγ) was “Direct activation” and the “activation of PPARα” value (PPARα) was “Direct activation”. The “inhibition of cytochrome P450 enzymes” value (cytochrome P450 enzymes) was “not the main inhibitory compound in grapefruit” and the “concentration needed to elicit a physiologic response” value [4] was 1-200 μm.
